Laboratory results taken from patent US20240384268A1, “Oligonucleotides” (Hudson Institute of Medical Research, priority 2021, published 2024).
In the oligonucleotide strings, read from the 5' end, every base follows the letter of its sugar. An asterisk marks phosphorothioate; unmarked linkages are phosphodiester. Other units and linkages are bracketed, terminal groups are in braces. A string of capitals states the bases alone. d = 2'-deoxy (DNA); m = 2'-O-methyl

Target: T1, human TLR7 (Homo sapiens, UniProt Q9NYK1)
T1 construct: HA; host or cells: 293XL-hTLR7-HA (HEK293)
T1 sequence (Q9NYK1 27-1049): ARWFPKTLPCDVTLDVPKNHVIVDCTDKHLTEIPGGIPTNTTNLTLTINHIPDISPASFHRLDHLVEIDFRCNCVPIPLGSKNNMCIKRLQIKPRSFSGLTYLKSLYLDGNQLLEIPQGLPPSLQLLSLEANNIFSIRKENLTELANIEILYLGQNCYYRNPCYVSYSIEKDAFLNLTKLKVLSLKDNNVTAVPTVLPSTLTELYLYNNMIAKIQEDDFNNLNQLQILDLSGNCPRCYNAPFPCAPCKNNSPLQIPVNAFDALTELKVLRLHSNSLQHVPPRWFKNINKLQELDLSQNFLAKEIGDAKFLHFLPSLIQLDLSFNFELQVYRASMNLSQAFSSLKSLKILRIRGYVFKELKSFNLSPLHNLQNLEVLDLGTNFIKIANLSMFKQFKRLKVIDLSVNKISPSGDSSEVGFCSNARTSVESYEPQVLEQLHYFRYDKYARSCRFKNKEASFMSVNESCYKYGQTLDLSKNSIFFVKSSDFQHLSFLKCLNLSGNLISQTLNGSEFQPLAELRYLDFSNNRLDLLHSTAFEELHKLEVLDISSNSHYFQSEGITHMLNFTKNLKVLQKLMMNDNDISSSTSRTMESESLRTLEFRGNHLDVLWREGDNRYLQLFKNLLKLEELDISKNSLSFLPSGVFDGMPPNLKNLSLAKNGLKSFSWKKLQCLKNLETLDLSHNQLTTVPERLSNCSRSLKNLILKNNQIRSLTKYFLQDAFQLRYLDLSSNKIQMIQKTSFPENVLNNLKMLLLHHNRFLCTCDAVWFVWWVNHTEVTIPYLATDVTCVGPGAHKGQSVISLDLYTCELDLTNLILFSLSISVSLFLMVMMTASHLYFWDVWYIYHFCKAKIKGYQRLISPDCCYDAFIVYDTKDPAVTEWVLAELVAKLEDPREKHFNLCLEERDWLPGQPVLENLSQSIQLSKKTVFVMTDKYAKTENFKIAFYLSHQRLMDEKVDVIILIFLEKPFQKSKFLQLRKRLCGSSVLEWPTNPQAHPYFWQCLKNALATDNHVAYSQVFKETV
Test: HEK-TLR7 NF-κB-luciferase reporter, R848 stimulation
Assay type: cell-based
Conditions: for TLR7 100 nM (averaged NF-κB-Luciferase level relative to R848 condition): ASO 100 nM; for TLR7 100 nM (averaged NF-κB-Luciferase level relative to R848 condition) / TLR7 500 nM (averaged NF-κB-Luciferase level relative to R848 condition): relative to R848 only, given as fraction; for TLR7 500 nM (averaged NF-κB-Luciferase level relative to R848 condition): ASO 500 nM; for TLR7 400 nM: 3mer 2'OMe ASO at 400 nM; for TLR7 400 nM / TLR7 2 uM: value relative to Ligand only = 1.000, NT = 0.000; for TLR7 2 uM: 3mer 2'OMe ASO at 2 uM

Row | Substance | TLR7 100 nM (averaged NF-κB-Luciferase level relative to R848 condition) | TLR7 500 nM (averaged NF-κB-Luciferase level relative to R848 condition) | TLR7 400 nM (HEK-TLR7) | TLR7 2 uM (HEK-TLR7) | inhibition of R848 sensing by TLR7, short pre-treatment (in words) (HEK-TLR7, 100-500 nM oligo 20-50 min before R848 1 μg/ml)
1 | GTCTTGGCTTCGTGGA (antisense; LNA-modified, pattern not given here) [MB21D1-522 LNA V1] | 0.652 | 0.056 | – | – | –
2 | GGCTGGAATCCGAGTT (antisense; LNA-modified, pattern not given here) [EGFR-4705 LNA KL] | 0.417 | 0.041 | – | – | –
3 | CCU (mC*mC*mU) | – | – | 1.210 | 0.880 | –
4 | UAA (mU*mA*mA) | – | – | 1.126 | 1.029 | –
5 | mUmCmG (antisense mU*mC*mG) [660-3b] | – | – | 0.979 | 0.982 | –
6 | UCU (mU*mC*mU) | – | – | 1.196 | 0.956 | –
7 | mG*mG*mU*A*T*C*C*C*C*C*C*C*C*C*C*C*C*C*C*C (GGUATCCCCCCCCCCCCCCC; antisense; sugars from the 5' end m3 d17, all phosphorothioate, methylation of C not given here) [[C2]Mut1-dC] | – | – | – | – | significantly higher TLR7 inhibition than dC20
8 | dC*dG*dA (CGA; listed as DNA, chemistry not fully specified) | – | – | 1.112 | 0.907 | –
9 | GATAGCACCTTCAGCA (antisense; LNA-modified, pattern not given here) [CTNN2B-1294 LNA KL] | 0.434 | 0.049 | – | – | –
10 | UAC (mU*mA*mC) | – | – | 1.161 | 1.003 | –
11 | dC*dC*dC (CCC; listed as DNA, chemistry not fully specified) | – | – | 1.196 | 0.993 | –
12 | mUmGmA (mU*mG*mA) [UGA, 3-mer 2′OMe PS oligo] | – | – | 1.126 | 0.831 | –
